These are literature values, as cited in patent US20100151459A1, “MARKER FOR DETECTING THE PROPOSED EFFICACY OF TREATMENT” (priority 2007, published 2010).

Series [1] deals with acutely exacerbated schizophrenic inpatients. Particulars: 18 mg/day, 3-week treatment.
Series [2] concerns reserpinized (hypodopaminergic) rats.

SMILES strings stand for the structures.

As for `CNc1cc(OC)c(C(=O)NC2CCN(Cc3ccccc3)C2C)cc1Cl` (stereo not drawn) [nemonapride], the “percentage improvement in other subgrouped symptoms (negative, anxiety-depression, excitement and cognitive symptoms)” value in series [1] (between the two genotype groups) is given as “similar”. Besides, the “percentage improvement in total BPRS and positive symptoms” value in series [1] (one or two A1 alleles (n=14) vs no A1 allele (n=11)) is reported as “significantly higher percentage improvement”. As to `O=C1CCc2ccc(OCCCCN3CCN(c4cccc(Cl)c4Cl)CC3)cc2N1` [aripiprazole], the locomotor activity result in series [2] was “does not increase locomotor activity”.
